From publication PMC11818921, “Biological Activities of Constituents from Rosa roxburghii and Their Mechanisms Based on Network Pharmacology and Biological Verification” (International Journal of Molecular Sciences, 2025) come the findings set out here.

“Also recorded” adds a separate entry of the source.

Data set [1] relates to NO release in LPS-induced RAW264.7 macrophages. In words: Inhibition of NO production induced by LPS in RAW264.7 cells. Conditions: LPS-induced RAW264.7 cells; for IC50: RAW264.7, 24 h, LPS 2 μg/mL, 24 h. Type of data set: cell-based. The procedure: (§1) RAW264.7 cells were added to a 96-well plate (100 μL/well) at 1.5 × 10^5 cells/mL and incubated for 24 h (37 °C). The control group, model group, and experimental group were set up, with 4 replicates in each group. After incubation, the supernatant was discarded. The cells in the experimental group were treated with different concentrations of compounds, and each group was incubated with lipopolysaccharides (2 μg/mL) for 24 h (37 °C). According to the steps and requirements of the kit instructions, NO, TNF-α, and IL-6 content was detected.

A short description of data set [2]: ABTS free radical-scavenging assay. To be noted: 6 min reaction, 734 nm. The procedure:
In order to explore the antioxidant capacity of compounds 1–7, DPPH and ABTS free radical-scavenging methods were used in this experiment (ascorbic acid as a positive control). During the experimental operation, the antioxidant test method proposed by Zhu et al. was used as a reference. Different concentrations of each compound solution were added to 96-well plates, and then 100 μL of DPPH/ABTS solution was added to each well, and the reaction was performed at room temperature for 30 min (DPPH)/6 min (ABTS). After the reaction, the OD values of each well were measured at 517 nm (DPPH)/734 nm (ABTS) using a microplate reader. Finally, according to the measured OD value, the DPPH and ABTS free radical-scavenging rates of each sample were calculated. In order to ensure the accuracy and reliability of the experimental data, all samples were tested three times.Clearance = [1 − (A sample group − A control group)/A blank group] × 100%

The nature of data set [3]: RAW264.7 cell viability experiment (MTT). Conditions: mouse, RAW264.7 cells.
Method: RAW264.7 cells were cultured in DMEM containing 1% penicillin/streptomycin and 10% bovine fetal serum in an incubator (5% CO2, 37 °C).
RAW264.7 cells in the logarithmic growth phase were taken and adjusted to 1.5 × 10^5 cells/mL. The cells were inoculated in 96-well plates and divided into a control group, a blank group, and an experimental group with different concentrations. Each group had 4 duplicate wells and was incubated for 24 h (37 °C). Different concentrations of compounds (100 μL) were added to 96-well plates, and 100 μL of culture medium was added to the blank group and the control group, respectively, and incubated for 24 h. MTT (5 mg/mL, 10 μL) was incubated for 4 h (37 °C) per well. The OD value was measured at 450 nm using a microplate reader to calculate the cell viability.
A further data set has as its target α-glucosidase (Saccharomyces cerevisiae, UniProt P53341). In words: α-Glucosidase inhibition assay (pNPG). Conditions: at a concentration of 200 μM; for inhibition at 200 µM: read-out: α-glucosidase inhibition rate. Type of data set: biochemical. The procedure:
For this assay, 20 μL of each sample, 20 μL of α-glucosidase solution (0.6 U/mL), and PBS solution (20 μL) were mixed, added to a 96-well plate, and incubated at 37 °C for 10 min, and then, pNPG solution (20 μL) was added and incubation continued for 30 min. At the end of incubation, the reaction was terminated with the addition of 80 μL of NaCO3 (0.2 M). The release of p-nitrophenol was measured by placing the 96-well plate at 405 nm on an enzyme meter (positive control: acarbose). The test was repeated three times for all samples.Inhibition (%) = (1 − A405 sample/A405 control) × 100%.

A further data set has as its system RAW264.7 cells. Conditions: 50 µM.
The subject of another data set is TNF-α. Nature of the data set: ELISA of TNF-α expression in LPS-stimulated RAW264.7 cells. Conditions: 50 μM. The format is cell-based. The procedure:
as §1

The test system of the next data set is IL-6. In words: ELISA of IL-6 expression in LPS-stimulated RAW264.7 cells. Type of data set: cell-based. To be noted: lowest concentration 12.5 μM. The procedure: as §1
[4] abbreviates: Mus musculus, 50 µM, read-out: NO inhibition rate (%).

Sequence of α-glucosidase (P53341 whole entry): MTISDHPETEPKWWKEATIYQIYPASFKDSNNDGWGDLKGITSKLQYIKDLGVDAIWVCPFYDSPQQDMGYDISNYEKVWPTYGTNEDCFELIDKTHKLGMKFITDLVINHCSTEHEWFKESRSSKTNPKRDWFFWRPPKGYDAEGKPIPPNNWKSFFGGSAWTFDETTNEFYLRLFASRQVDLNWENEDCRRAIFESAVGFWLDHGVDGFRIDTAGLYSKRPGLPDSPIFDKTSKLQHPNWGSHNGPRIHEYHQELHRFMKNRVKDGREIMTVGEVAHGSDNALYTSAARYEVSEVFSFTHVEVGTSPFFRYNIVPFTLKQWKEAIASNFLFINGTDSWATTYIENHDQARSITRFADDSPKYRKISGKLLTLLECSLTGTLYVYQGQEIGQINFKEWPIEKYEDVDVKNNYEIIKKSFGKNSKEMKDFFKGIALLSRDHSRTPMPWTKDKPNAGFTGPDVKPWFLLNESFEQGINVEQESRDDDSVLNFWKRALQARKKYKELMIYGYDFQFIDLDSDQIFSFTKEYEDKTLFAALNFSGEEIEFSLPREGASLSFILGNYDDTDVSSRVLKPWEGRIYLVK

On to `COC(=O)C1OC(OCC(O)COC(=O)c2cc(OC)c(O)c(OC)c2)C(O)C(O)C1O` (stereo not shown) [Compound 1, Roxbubenzoate A], for which the inhibition at 50 µM in data set [1] (setting [4]) turned out to be 0%. In data set [2], half-maximal inhibition (IC50) was put at 107 ± 1.1 µM. In addition, in data set [3], the viability at 24 h, 50 µM came out at 100%.
For the compound `S=C(S)N1CCCC1` [PDTC, Pyrrolidine dithiocarbamate, reference compound], the IC50 in data set [1] (Mus musculus) turned out to be 3.13 ± 0.3 µM. Moreover, in data set [1] (Mus musculus, 5 µM, positive control, read-out: NO inhibition rate (%)), the inhibition at 5 µM stood at 69.1%. This compound displayed a viability at 24 h, 5 µM in data set [3] of 98.5%.
For the compound `CC1=C(CC[C@H](C)O[C@H]2O[C@@H](CO)[C@H](O)[C@@H](O)[C@@H]2O)C(C)(C)C=CC1=O` [Compound 4, linarionoside A], the inhibition at 50 µM in data set [1] (setting [4]) was 6.6%. In addition, the inhibition at 200 µM at α-glucosidase was determined as 46.7%. Moreover, in data set [3], the viability at 24 h, 50 µM is 98.8%.
As for “(1R)-4-[(3R)-3-hydroxybutyl]-3,5,5-trimethylcyclohex-3-en-1-ol [Compound 6]”, the “NO inhibition rate (%)” value in data set [1] (50 µM) came to 0.8%. In data set [2], this compound gave an IC50 of 128.3 ± 1.2 µM. For the same compound, the “Cell viability (%)” value with RAW264.7 cells worked out at 98.1%.
At α-glucosidase, 4-(1-Methoxyethenyl)phenol [Compound 7] came in with a α-glucosidase inhibition rate of 41.1%.
`O=C1C[C@H](c2ccc(O)c(O)c2)Oc2cc(O)cc(O)c21` [Compound 2, (-)-eriodictyol]: the inhibition at 50 µM in data set [1] (setting [4]) came to 31.3%. The inhibition at 200 µM on α-glucosidase was found to be 50.1%. Besides, the IC50 in data set [2] is 142.6 ± 0.8 µM. The compound also gave a viability at 24 h, 50 µM in data set [3] of 100%.
Turning to `O=C1c2c(O)cc(O)cc2O[C@H](c2ccc(O)cc2)[C@H]1O` [Compound 3, aromadendrin], it took 7.83 ± 2 µM to reach half-maximal inhibition in data set [1] (Mus musculus) (IC50). Also, the inhibition at 50 µM in data set [1] (setting [4]) came out at 92.5%. Also, the “effect on TNF-α expression (ELISA)” value in the data set on TNF-α is “significant inhibitory activity”. In addition, the viability at 24 h, 50 µM in data set [3] came out at 100%. For the same compound, the “effect on IL-6 expression (ELISA)” value in the data set with IL-6 is on record as “strong inhibitory effect; also recorded: dose-dependently suppressed”.
